Measurements published in publication PMC4544630, “Contribution of C-glucosidic ellagitannins to Lythrum salicaria L. influence on pro-inflammatory functions of human neutrophils” (Journal of Natural Medicines, 2014).

Assays:
[1] = system: IL-8; test: IL-8 production by LPS-stimulated neutrophils (ELISA); assay type: cell-based, human; conditions: LPS 100 ng/mL, 24 h, % of stimulated control
Source text: (§1) Peripheral venous blood was taken from healthy human donors (20–35 years old) in the Warsaw Blood Donation Centre. […] The study conformed to the principles of the Declaration of Helsinki. Neutrophils were isolated using a standard method of dextran sedimentation prior to hypotonic lysis of erythrocytes and to centrifugation in a Ficoll Hypaque gradient. The purity of neutrophil preparations was >97 %, and viability measured by trypan blue exclusion was >98 %. Neutrophils were then resuspended in appropriate medium to perform the selected assay.
(§2) Neutrophils (2 × 10^5/mL) were cultured in 24-well plates in RPMI 1640 medium with 10 % FBS, 10 mM HEPES, and 2 mM L-glutamine in the absence or presence of LPS (100 ng/mL) for 24 h at 37 °C with 5 % CO2 in the absence or presence of extract at concentrations of 1, 5 and 20 μg/mL, and compounds at concentrations of 1, 5 and 20 μM were added to 1 mL of cell suspension 1 h before the stimuli. After 24 h, the neutrophils were harvested and centrifuged (2000 RPM; 10 min; 4 °C). The amount of IL-8 or MMP-9 released into cell supernatants was measured by enzyme-linked immunosorbent assay (ELISA) following the manufacturer’s instructions (R&D Systems, Minneapolis, MN, USA). PBS was used as a non-stimulated control. Curcumin was used as a positive control, according to Aggarwal and Harikumar and Antoine et al..

[2] = system: MMP-9; test: MMP-9 production by LPS-stimulated neutrophils (ELISA); assay type: cell-based, human; conditions: LPS 100 ng/mL, 24 h, % of stimulated control
Source text: as §1, §2

[3] = system: elastase; test: Elastase release from cytochalasin A/f-MLP-stimulated neutrophils (SAAVNA substrate); assay type: cell-based, human; conditions: % of stimulated control
Source text: as §1
Neutrophil elastase release was determined using SAAVNA as a substrate, and […] was measured spectrophotometrically. 100 μL of cell suspension (5 × 10^5/mL) in HBSS was preincubated with 50 μL of compound or extract solution (final concentrations of 1, 5 and 20 μM or μg/mL) for 15 min at 37 °C and then stimulated with 50 μL of cytochalasin A (5 μg/mL) and f-MLP (0.1 μg/mL) for 15 min. The neutrophils were centrifuged (2000 rpm; 10 min; 4 °C). After the addition of 50 μL of SAAVNA solution (1.6 mg/mL) to 100 μL of supernatant, the extent of […] was measured spectrophotometrically for 1 h at intervals of 20 min, at 412 nm using a microplate reader (BioTek). According to Kanashiro et al., quercetin was used as a positive control.

[4] = system: ROS; test: ROS release from PMA-stimulated neutrophils, lucigenin chemiluminescence; assay type: cell-based, human; conditions: PMA + lucygenin, % of stimulated control
Source text: as §1
(§3) Generation of oxidants by f-MLP or PMA-stimulated neutrophils was measured using luminol- or lucigenin-dependent chemiluminescence tests. 70 μL of cell suspension (2 × 10^5/mL) in HBSS was incubated with 50 μL of compound or extract solution (final concentrations of 1, 5 and 20 μM or μg/mL) together with 50 μL of luminol (100 μM) or lucigenin (200 μM) solution. ROS production was initiated by the addition of 30 μL of f-MLP (0.1 μg/mL) or PMA (1 μg/mL). Changes in chemiluminescence at 37 °C were measured immediately for 45 min at intervals of 2 min in a microplate reader (Biotek). Ascorbic acid was used as a positive control.

[5] = molecular target: T1, bovine testis hyaluronidase (Bos taurus, UniProt Q2YDK3); test: Hyaluronidase activity, USP turbidimetric method modified; assay type: biochemical; conditions: for Hyaluronidase activity Mean(%): % of 100% active enzyme control
T1 construct: purchased Sigma–Aldrich GmbH (Steinheim, Germany); host or cells: bovine testis
T1 sequence (Q2YDK3 36-553): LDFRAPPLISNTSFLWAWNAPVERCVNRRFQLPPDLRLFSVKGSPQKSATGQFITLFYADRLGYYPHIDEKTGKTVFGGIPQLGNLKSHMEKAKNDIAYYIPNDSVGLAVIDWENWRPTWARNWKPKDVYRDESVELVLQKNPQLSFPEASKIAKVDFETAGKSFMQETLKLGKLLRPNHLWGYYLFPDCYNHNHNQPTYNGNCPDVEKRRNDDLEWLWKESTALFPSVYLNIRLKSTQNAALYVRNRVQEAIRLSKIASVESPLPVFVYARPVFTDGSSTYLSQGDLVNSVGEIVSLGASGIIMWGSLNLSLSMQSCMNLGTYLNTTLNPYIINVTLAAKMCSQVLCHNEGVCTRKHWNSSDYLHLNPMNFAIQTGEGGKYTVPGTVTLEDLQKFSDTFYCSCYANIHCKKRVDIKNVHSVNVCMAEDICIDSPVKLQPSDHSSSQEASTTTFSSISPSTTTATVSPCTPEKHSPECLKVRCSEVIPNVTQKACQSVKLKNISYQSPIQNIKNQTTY
Source text: The […] flowering herb was collected from its natural habitat in Umer in the Świętokrzyskie region (Poland) in July 2011. Its identity was confirmed anatomically and morphologically based on its pharmacopoeial monograph in the Department of Pharmacognosy and Molecular Basis of Phytotherapy, Medical University of Warsaw, where the voucher specimen UMER2011 is deposited. […] […]), castalagin ([…] (SB) and […]. 1, 2) from […] performed according to Piwowarski and Kiss. […] Isolated ellagitannins were of >95 % purity (determined by the HPLC-DAD-CAD method). […] Gallic acid (>96 % purity) was purchased from ChromaDex (Santa Ana, USA). Propidium iodide was purchased from BD Biosciences (San Diego, CA, USA). All substances used were of >95 % purity. Phosphate-buffered saline (PBS) was purchased from Gibco (Carlsbad, CA, USA). The influence of extract and ellagitannins on hyaluronidase activity was measured using the USP turbidimetric method modified by Piwowarski et al. […] Heparin was used as a positive control.

[6] = system: ROS; test: ROS release from f-MLP-stimulated neutrophils, luminol chemiluminescence; assay type: cell-based, human; conditions: % of stimulated control
Source text: as §1, §3

[7] = system: MPO; test: MPO release from cytochalasin A/f-MLP-stimulated neutrophils (TMB substrate); assay type: cell-based, human; conditions: cytochalasin A/f-MLP, % of stimulated control
Source text: Peripheral venous blood was taken from healthy human donors (20-35 years old) in the Warsaw Blood Donation Centre. […] The study conformed to the principles of the Declaration of Helsinki. Neutrophils were isolated using a standard method of dextran sedimentation prior to hypotonic lysis of erythrocytes and to centrifugation in a Ficoll Hypaque gradient. The purity of neutrophil preparations was >97 %, and viability measured by trypan blue exclusion was >98 %. Neutrophils were then resuspended in appropriate medium to perform the selected assay. Neutrophil MPO release was determined using TMB as a substrate. […] After centrifugation (2000 rpm; 10 min; 4 °C), 100 μL of supernatant was incubated with 50 μL of the TMB liquid substrate system. The reaction was terminated after 20 min by the addition of 2 M hydrochloric acid. The absorbance was measured at […] using a microplate reader (BioTek). Gallic acid was used as a positive control, according to Kroes et al..

Row | Compound | IL-8 production Mean (%) ([1]; 1 μM) | IL-8 production Mean (%) ([1]; 5 μM) | IL-8 production Mean (%) ([1]; 20 μM) | MMP-9 production Mean (%) ([2]; 1 μM) | MMP-9 production Mean (%) ([2]; 5 μM) | MMP-9 production Mean (%) ([2]; 20 μM) | Elastase release Mean(%) ([3]; 1 μM) | Elastase release Mean(%) ([3]; 5 μM) | Elastase release Mean(%) ([3]; 20 μM) | ROS release Mean(%) ([4]; 1 μM) | ROS release Mean(%) ([4]; 5 μM) | ROS release Mean(%) ([4]; 20 μM) | ROS release Mean(%) ([6]; 1 μM) | ROS release Mean(%) ([6]; 5 μM) | ROS release Mean(%) ([6]; 20 μM) | MPO release Mean(%) ([7]; 1 μM) | MPO release Mean(%) ([7]; 5 μM) | MPO release Mean(%) ([7]; 20 μM) | also measured
1 | COc1cc(/C=C/C(=O)CC(=O)/C=C/c2ccc(O)c(OC)c2)ccc1O [Cur, curcumin, reference compound] | 112,66% | 58,75% | 26,70% | 100,14% | 64,26% | 39,26% | – | – | – | – | – | – | – | – | – | – | – | – | –
2 | O=c1c(O)c(-c2ccc(O)c(O)c2)oc2cc(O)cc(O)c12 [Q, quercetin, reference compound] | – | – | – | – | – | – | 104,09% | 78,40% | 55,22% | – | – | – | – | – | – | – | – | – | –
3 | O=C(OC1COC(=O)c2cc(O)c(O)c(O)c2-c2c(cc(O)c(O)c2O)C(=O)OC1C1OC(=O)c2cc(O)c(O)c(O)c2-c2c(O)c(O)c(O)c3c2C(=O)OC1C3O)c1cc(O)c(O)c(O)c1Oc1cc2c(c(O)c1O)-c1c(cc(O)c(O)c1O)C(=O)OCC1OC(=O)c3cc(O)c(O)c(O)c3-c3c(O)c(O)c(O)c4c3C(=O)OC(C1OC2=O)C1OC(=O)c2c-4c(O)c(O)c(O)c2C1O (centres unmarked) [SA, salicarinin A] | 89,82% | 81,38% | 79,80% | 100,80% | 92,00% | 96,35% | 80,47% | 63,45% | 42,22% | 66,68% | 44,80% | 14,59% | 54,14% | 27,84% | 19,49% | 61,96% | 31,79% | 1,52% | IC50 [5]: 1600 ± 100 nM; Hyaluronidase activity Mean(%) ([5]; 1 μM): 75,50%; Hyaluronidase activity Mean(%) ([5]; 2 μM): 35,96%; Hyaluronidase activity Mean(%) ([5]; 5 μM): 0,50%; Hyaluronidase activity Mean(%) ([5]; 20 μM): 1,13%
4 | O=C(OC1COC(=O)c2cc(O)c(O)c(O)c2-c2c(cc(O)c(O)c2O)C(=O)OC1C1OC(=O)c2cc(O)c(O)c(O)c2-c2c(O)c(O)c(O)c3c2C(=O)OC1C3O)c1cc(O)c(O)c(O)c1Oc1cc2c(c(O)c1O)-c1c(cc(O)c(O)c1O)C(=O)OCC1OC(=O)c3cc(O)c(O)c(O)c3-c3c(O)c(O)c(O)c4c3C(=O)OC(C1OC2=O)C1OC(=O)c2c-4c(O)c(O)c(O)c2C1O (centres unmarked) [SB, salicarinin B] | 107,98% | 78,12% | 59,17% | 99,56% | 95,83% | 78,81% | 82,54% | 65,03% | 38,16% | 64,77% | 36,09% | 13,06% | 61,64% | 28,73% | 16,39% | 67,99% | 49,60% | 2,93% | IC50 [5]: 1600 ± 200 nM; Hyaluronidase activity Mean(%) ([5]; 1 μM): 70,96%; Hyaluronidase activity Mean(%) ([5]; 2 μM): 34,62%; Hyaluronidase activity Mean(%) ([5]; 5 μM): -0,07%; Hyaluronidase activity Mean(%) ([5]; 20 μM): 0,50%
5 | O=C1O[C@H]([C@@H](O)CO)C(O)=C1O [VitC, ascorbic acid, reference compound] | – | – | – | – | – | – | – | – | – | 93,99% | 94,53% | 85,15% | 91,10% | 79,14% | 61,91% | – | – | – | –
6 | O=C(O)c1cc(O)c(O)c(O)c1 [gal, Gallic acid, reference compound] | – | – | – | – | – | – | – | – | – | – | – | – | – | – | – | 85,62% | 58,97% | 18,88% | –
7 | Heparin [reference compound] | – | – | – | – | – | – | – | – | – | – | – | – | – | – | – | – | – | – | Hyaluronidase activity Mean(%) ([5]; 1 μg/mL): 100,00%; Hyaluronidase activity Mean(%) ([5]; 2 μg/mL): 96,35%; Hyaluronidase activity Mean(%) ([5]; 5 μg/mL): 89,89%; Hyaluronidase activity Mean(%) ([5]; 20 μg/mL): 82,73%
